In patent publication US5677326A, “Indoline compound and 5-HT3 receptor antagonist containing the same as active ingredient” (Tokyo Tanabe Company Limited, priority 1993, dated 1997):
Structures can show the parent of a compound that is named as a salt. Where two headings read alike, the source gives them in different places.

Tests used:
[1] = molecular target: T1, Intestinal 5-HT3 receptor (Cavia porcellus, UniProt O70212); assay: Intestinal 5-HT3 receptor antagonism (isolated distal colon, 2-methylserotonin-induced contraction); format: cell-based, Hartley guinea pigs; details: for Kb: isolated distal colon, 2-methylserotonin contraction
T1 sequence (O70212 24-490 limits assumed): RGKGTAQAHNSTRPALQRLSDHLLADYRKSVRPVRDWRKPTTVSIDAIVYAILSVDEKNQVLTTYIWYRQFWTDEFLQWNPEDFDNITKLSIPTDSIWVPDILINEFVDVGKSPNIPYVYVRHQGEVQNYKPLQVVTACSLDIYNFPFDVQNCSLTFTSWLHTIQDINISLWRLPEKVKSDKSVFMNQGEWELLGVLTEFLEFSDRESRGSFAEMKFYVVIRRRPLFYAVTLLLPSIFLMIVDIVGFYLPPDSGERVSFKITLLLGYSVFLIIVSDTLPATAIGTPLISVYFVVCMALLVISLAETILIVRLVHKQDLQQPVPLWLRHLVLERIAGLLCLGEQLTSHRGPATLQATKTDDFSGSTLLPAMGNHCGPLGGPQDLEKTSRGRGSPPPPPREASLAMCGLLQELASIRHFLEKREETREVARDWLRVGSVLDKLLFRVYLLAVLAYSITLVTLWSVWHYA
Protocol: The test was conducted following the method of Miyata, et al. (The Journal of Pharmacology and Experimental Therapeutics Vol.259, No:1, 15 (1991)).
Male Hartley guinea pigs with a body weight of 300-400 g were bled to death, the distal colon (3-10 cm from the anus) was isolated and suspended in a Magnus tube filled with Krebs solution aerated with a mixed gas (95% O2, 5% CO2), and subjected to a tensile load of 1 g. After constant contraction by cumulative addition of 2-methylserotonin (10^-6 -10^-4 M) was obtained, the test agent was added and the pA2 value of the test agent was calculated based on its inhibiting action on the initial value.
The value (pA2 value) is defined as the negative logarithm (-logM) of the molar concentration (M) of the antagonist required to reduce the effect of serotonin at a concentration of 2 times the 2-methylserotonin concentration (EC50) necessary to induce half of the maximum contraction reaction, to an effect induced by an EC50 of serotonin.

[2] = molecular target: T2, 5-HT3 receptors in the heart (Rattus norvegicus, UniProt P35563); assay: Antagonism against Von Bezold-Jarisch reflex (BJ reflex); format: in vivo, SD rats; details: 5 min before serotonin 30 μg/kg, read-out: ID50 (the source's name)
T2 construct: from tissue; host or cells: living anesthetized male SD rats (in vivo)
T2 sequence (P35563 24-483): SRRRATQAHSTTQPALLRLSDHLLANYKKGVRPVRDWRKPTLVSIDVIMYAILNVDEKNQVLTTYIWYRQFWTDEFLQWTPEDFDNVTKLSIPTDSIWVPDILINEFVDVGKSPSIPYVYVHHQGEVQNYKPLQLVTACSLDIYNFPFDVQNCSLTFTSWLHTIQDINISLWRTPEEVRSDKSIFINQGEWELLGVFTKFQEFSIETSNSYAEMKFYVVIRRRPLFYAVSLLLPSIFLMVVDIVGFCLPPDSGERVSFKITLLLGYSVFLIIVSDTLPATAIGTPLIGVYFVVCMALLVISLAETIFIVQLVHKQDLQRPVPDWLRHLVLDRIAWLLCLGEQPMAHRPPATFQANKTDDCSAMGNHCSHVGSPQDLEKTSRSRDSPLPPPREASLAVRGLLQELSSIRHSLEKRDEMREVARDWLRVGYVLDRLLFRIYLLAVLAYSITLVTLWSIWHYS
Protocol: Antagonism against Von Bezold-Jarisch reflex (BJ reflex):
The pulse was determined by measuring the electrocardiogram R waves (secondary induction) with an instantaneous pulse rate meter.

[3] = system: cisplatin-induced vomiting; assay: Inhibiting effect on cisplatin-induced vomiting; format: in vivo, ferrets; details: oral, 1 hour before cisplatin; for No. of retching / No. of vomiting animals/No. of animals used / No. of vomitings: 6 hours
Text: Inhibiting effect on cisplatin-induced vomiting:
Vomiting was induced in ferrets by administration of cisplatin. The inhibiting effect on this vomiting was observed. […] The test agents were orally administered one hour prior to cisplatin administration. […]

Acute toxicity (oral) = format: in vivo; details: rats; for LD50: rat, in vivo; for cases of death: 1000 mg/kg
gastric emptying = assay: Accelerating effect on gastric emptying (cisplatin-reduced); format: in vivo, SD rats; details: for Gastric evacuation: oral, 30 min before cisplatin 10 mg/kg
Protocol: Accelerating effect on gastric emptying
Seven-week-old male SD rats which had been fasted for 24 hours were used. The effect on gastric emptying was studied in rats with reduced gastric emptying due to cisplatin. The rats were intragastrically administered the test feed (1.5% aqueous CMC solution containing 50 mg/100 ml phenol red) at 1.5 ml/rat, and after 15 minutes the stomachs were dissected, the residual amount of phenol red in the stomach was measured, in order to determine the gastric emptying in normal animals. A cisplatin-induced reduction in gastric emptying was measured by intraabdominal administration of cisplatin (10 mg/kg) 30 minutes prior to supplying the test feed. The test compound was also administered orally 30 minutes prior to the cisplatin administration to study the accelerating effect of the test compound on gastric emptying.

[4] = system: restrained stress-induced diarrhea; assay: Inhibiting effect on restrained stress-induced diarrhea (oral administration); format: in vivo, Wistar rats; details: 1 hour before stress
Protocol: Inhibiting effect on restrained stress-induced diarrhea (oral administration): This test was conducted following the method of Miyata, et al. […] Nine-week-old male Wistar rats fasted overnight were placed in a stress cage and their feces produced in 5 hours were observed. Of 15 rats, 14 developed diarrhea. The inhibiting effect on diarrhea was measured by oral administration of the test compounds one hour prior to placement in the stress cage.

[5] = system: 5-HT3 receptors in the upper intestine; assay: Antagonism against 5-HT-induced intestinal secretion (jejunal loop); format: in vivo, wister rats; details: for net fluid transfer in jejunal loop: caudal vein, 15 min before serotonin
Protocol: Antagonism against 5-HT-induced intestinal secretion:
Male wister rats (8-11 weeks old) were anesthetized with urethane, and the abdomen was opened a polyethylene catheter was placed in the jejunum 5 cm distal to the duodenojejunal flexure and fixed by ligation. The second ligation was made at a distal point of 20 cm to create a jejunal loop. Two ml of physiological saline was injected into this loop and initiated continuous injection of physiological saline (0.1 ml/min) or 5-HT (3 μg/0.1 ml/kg/min, serotonin treated group) into the mesenteric artery through the mesenteric artery gastric branch, and after 30 minutes the jejunal loop was isolated, the residual fluid amount was measured, and the net fluid transfer per gram of tissue weight was calculated. The net fluid transfer was expressed as the fluid amount (weight) change in 30 minutes per jejunal tissue weight (g/30 min/g). A "+" was assigned when the fluid amount increased compared with 2 ml of physiological saline injected into the loop, and "-" when it decreased

[6] = system: restraint stress-induced diarrhea; assay: Inhibiting effect on restraint stress-induced diarrhea (intraabdominal administration); format: in vivo, Wistar rats; details: 30 μg/kg, 30 min before stress
Protocol: Inhibiting effect on restraint stress-induced diarrhea (intraabdominal administration): This test was conducted in the same manner as Test 3. Nine- to ten-week-oldmale Wistar rats fasted overnight were placed in a stress case and their feces produced in 5 hours were observed. Of 15 rats, 14 developed diarrhea. The inhibiting effect on diarrhea was measured by intraabdominal administration of a test compound 30 minutes prior to placement in the stress cage.

[7] = system: duodenal extension reflex; assay: Inhibiting effect on duodenal extension reflex; format: in vivo, Wistar rats; details: for Inhibition rate, 5-min value / Inhibition rate, 15-min value / Inhibition rate, 25-min value: intravenous
Text: Inhibiting effect on duodenal extension reflex: Unfasted male Wistar rats with a body weight of 300-390 g were opened at the abdomen under urethane anesthesia, and ligated at 2 locations, the gastric pyloric region and 3-4 cm directly under it, to create a duodenal loop. […] The beaker was raised at once to create a internal loop pressure of 75 cm H2, and the depressor reflex and effect of the test agent administration were observed. […] The test agent was then administrated intravenously, and at 5, 15 and 25 minutes after administration an extension stimulus was applied, the depressor reflex was observed, and the differences were expressed as percentages with respect to the initial value, to give the inhibition rates.

stress-related diarrhea = details: animal models; J. Pharmacol. Exp. Ther. 261, 297 (1992); cited from earlier work
[8] = read-out: M (molar concentration of antagonist)

With `CC1CN(C(=O)C2CCc3[nH]cnc3C2)c2ccccc21` (stereo not drawn) [A, reference compound] the Kb ([1]; read-out: pA2 (converted)) was > 10 nM.

With `Cl.O=C(C1CCc2nc[nH]c2C1)N1CC(c2ccccc2)c2ccccc21` (stereo not drawn) [Compound 2, 5-[(3-phenylindolin-1-yl)carbonyl]-4,5,6,7-tetrahydrobenzimidazole hydrochloride] the Kb ([1]; read-out: pA2 (converted)) was 1 nM and the ED50 ([2]; iv) was 0.0003 mg/kg.

With `Cl.O=C(C1CCc2nc[nH]c2C1)N1CC(c2ccccc2)c2ccccc21` (stereo not drawn) [Compound 4, 5-[(3-phenylindolin-1-yl)carbonyl]-4,5,6,7-tetrahydrobenzimidazole hydrochloride] the “activity in the colon compared to YM-060 and YM-114” value ([1]; colon, relative to YM-060 and YM-114) was “about 15 -fold”, the Kb [1, 8] was 0.3 nM and the Kb ([1]; read-out: pA2 (converted)) was 0.251 nM. The “Latency* (time to initial retching)” value ([3]; 0.3 μg) was 114.0 min, the “Latency** (time to initial vomiting)” value ([3]; 0.3 μg) was 114.0 min and the No. of retching ([3]; 0.3 μg) was 139.0. The “No. of vomiting animals/No. of animals used” value ([3]; 0.3 μg) was 2/2, the No. of vomitings ([3]; 0.3 μg) was 7.0 and the “Latency* (time to initial retching)” value ([3]; 1.0 μg) was > 289.7 min. The “Latency** (time to initial vomiting)” value ([3]; 1.0 μg) was 293.0 min, the No. of retching ([3]; 1.0 μg) was 14.7 and the “No. of vomiting animals/No. of animals used” value ([3]; 1.0 μg) was 1/3. For the same compound, the No. of vomitings ([3]; 1.0 μg) was 1.0, the LD50 (Acute toxicity (oral)) was ≥ 1000 mg/kg and the cases of death (Acute toxicity (oral)) was “no cases of death”. The “inhibition of cisplatin-induced gastric emptying reduction (in words)” value (gastric emptying; 0.3 μg/kg) was “inhibited similar cisplatin-induced gastric emptying reduction”, the Gastric evacuation (gastric emptying; 0.3 μg/kg) was 73.3% and the “amount needed relative to YM-060 for similar inhibition of gastric emptying reduction” value (gastric emptying; 0.3 μg/kg, relative to the amount of YM-060) was “less than 1/3”. The “gastric emptying acceleration (in words)” value (gastric emptying; 1.0 μg/kg) was “gastric emptying was further accelerated”, the Gastric evacuation (gastric emptying; 1.0 μg/kg) was 82.4% and the ED50 ([2]; iv) was 0.00039 µmol/kg. For the same compound, the Inhibition rate ([4]; 30 μg/kg) was 70%, the “No. of animals with diarrhea/No. of animals used” value ([4]; 30 μg/kg) was 3/10 and the “net fluid transfer in jejunal loop” value ([5]; 0.1 μg/kg) was -0.50 ± 0.07 g/30 min/g tissue weight. For the same compound, the “net fluid transfer in jejunal loop” value ([5]; 1.0 μg/kg) was -0.80 ± 0.09 g/30 min/g tissue weight, the Inhibition rate [6] was 90% and the “No. of animals with diarrhea/No. of animals used” value [6] was 1/10. For the same compound, the “Inhibition rate, 5-min value” ([7]; 1 μg/kg) was 21.7%, the “Inhibition rate, 15-min value” ([7]; 1 μg/kg) was 6.7% and the “Inhibition rate, 25-min value” ([7]; 1 μg/kg) was 20.2%. The “Inhibition rate, 5-min value” ([7]; 10 μg/kg) was 16.3%, the “Inhibition rate, 15-min value” ([7]; 10 μg/kg) was 17.8% and the “Inhibition rate, 25-min value” ([7]; 10 μg/kg) was 21.1%. The “inhibition of intestinal sensitivity to dilatation / alleviation of abdominal pain (in words)” value ([7]; rat, in vivo) was “inhibited intestinal sensitivity to dilatation stimulation more strongly than YM-060”.

For `Cl.O=C(C1CCc2nc[nH]c2C1)N1CC(c2cccc(O)c2)c2ccccc21` (stereo not drawn) [Compound 6, 5-[(3-(3-hydroxyphenyl)indolin-1-yl)carbonyl]-4,5,6,7-tetrahydrobenzimidazole hydrochloride], the Kb ([1]; read-out: pA2 (converted)) was 0.1 nM, the LD50 (Acute toxicity (oral)) was ≥ 1000 mg/kg and the cases of death (Acute toxicity (oral)) was “no cases of death”. The ED50 ([2]; iv) was 0.00015 mg/kg, the Inhibition rate ([4]; 100 μg/kg) was 100% and the “No. of animals with diarrhea/No. of animals used” value ([4]; 100 μg/kg) was 0/5.

In the case of `Cl.O=C(C1CCc2nc[nH]c2C1)N1CC(c2ccc(O)cc2)c2ccccc21` (stereo not drawn) [Compound 8, 5-[(3-(4-hydroxyphenyl)indolin-1-yl)carbonyl]-4,5,6,7-tetrahydrobenzimidazole hydrochloride], the Kb ([1]; read-out: pA2 (converted)) is reported as 0.1 nM, the LD50 (Acute toxicity (oral)) is reported as ≥ 1000 mg/kg and the cases of death (Acute toxicity (oral)) is reported as “no cases of death”. For the same compound, the ED50 ([2]; iv) was 0.00013 mg/kg, the Inhibition rate ([4]; 30 μg/kg) was 70% and the “No. of animals with diarrhea/No. of animals used” value ([4]; 30 μg/kg) was 2/10.

Work on `O=C(C1CCc2nc[nH]c2C1)N1CC(c2ccccc2O)c2ccccc21` (stereo not drawn) [Compound 10, 5-[(3-(2-hydroxyphenyl)indolin-1-yl)carbonyl]-4,5,6,7-tetrahydrobenzimidazole hydrochloride] yielded a Kb [1, 8] of 0.05 nM and a Kb ([1]; read-out: pA2 (converted)) of 0.126 nM.

Compound `COc1cccc(C2CN(C(=O)C3CCc4nc[nH]c4C3)c3ccccc32)c1` (stereo not drawn) [Compound 12, 5-[(3-(3-methoxyphenyl)indolin-1-yl)carbonyl]-4,5,6,7-tetrahydrobenzimidazole hydrochloride] has a Kb [1, 8] of 0.13 nM and a Kb ([1]; read-out: pA2 (converted)) of 0.1 nM.

In the case of `CN1C2CCCC1CC(NC(=O)c1nn(C)c3ccccc13)C2` (stereo not drawn) [Granisetron, N-(endo-9-methyl-9-azabicyclo [3,3,1]nona-3-yl)-l-methyl-indazol-3-carboxamide hydrochloride], the “suppression of stress-related diarrhea (in words)” value (stress-related diarrhea) is listed as “suppress stress-related diarrhea”.

For `Cc1nccn1CC1CCc2c(c3ccccc3n2C)C1=O` (stereo not drawn) [Ondansetron, 1,2,3,4-tetrahydro-9-methyl-3-[(2-methyl-1H-imidazol-1-yl)methyl]-4H-carbazol-4-one-hydrochloride dihydrate], the “suppression of stress-related diarrhea (in words)” value (stress-related diarrhea) is listed as “suppress stress-related diarrhea”.

For `CN1[C@@H]2CC[C@H]1C[C@@H](OC(=O)c1c[nH]c3ccccc13)C2` [Tropisetron, endo-8-methyl-8-azabicyclo[3,2,1]octa-3-yl indol-3-ylcarboxylate], the “Inhibition rate, 5-min value” ([7]; 10 μg/kg) was 42.7%, the “Inhibition rate, 15-min value” ([7]; 10 μg/kg) was 44.1% and the “Inhibition rate, 25-min value” ([7]; 10 μg/kg) was 30.6%.

In the case of `O=C([C@@H]1CCc2[nH]cnc2C1)N1CCc2ccccc21` [YM-114, reference compound], the Kb ([1]; read-out: pA2 (converted)) is reported as 3.98 nM, the ED50 ([2]; intravenous) is reported as 0.00015 mg/kg and the Inhibition rate ([4]; 30 μg/kg) is reported as 30%. The “No. of animals with diarrhea/No. of animals used” value ([4]; 30 μg/kg) was 7/10.

In the case of `NCCc1c[nH]c2ccc(O)cc12` [serotonin, 5-hydroxytryptamine], the “acceleration in intestinal secretion” value ([5]; serotonin administration versus control) is reported as 0.19 g/30 min/g tissue weight.
